Experimental data as given in patent US7109193B2, “Tricyclic diazepines tocolytic oxytocin receptor antagonists” (Wyeth, priority 2001, dated 2006).

Target: T1, human oxytocin receptor (Homo sapiens, UniProt P30559)
T1 construct: host or cells: CHO cells (pcDNA3.1 vector)
T1 sequence (P30559 1-389): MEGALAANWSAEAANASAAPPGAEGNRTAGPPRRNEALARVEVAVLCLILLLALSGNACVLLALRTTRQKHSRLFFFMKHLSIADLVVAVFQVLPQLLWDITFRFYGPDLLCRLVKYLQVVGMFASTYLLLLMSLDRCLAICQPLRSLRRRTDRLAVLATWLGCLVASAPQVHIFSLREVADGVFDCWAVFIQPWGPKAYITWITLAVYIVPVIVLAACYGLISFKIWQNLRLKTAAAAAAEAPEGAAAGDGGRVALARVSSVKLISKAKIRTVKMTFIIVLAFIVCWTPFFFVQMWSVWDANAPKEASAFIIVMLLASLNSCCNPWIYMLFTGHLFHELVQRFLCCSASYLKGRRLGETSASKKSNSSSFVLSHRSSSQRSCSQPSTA
Test: Oxytocin binding in Chinese Hamster Ovary cell membranes expressing human oxytocin receptors
Details: 100 nM, CHO cell membranes, [3H]oxytocin, values without parentheses; for inhibition at 0.1 µM: read-out: OT % inhibition @ 100% nM
Method: Oxytocin Binding in Chinese Hamster Ovary Cell Membranes Expressing Human Oxytocin Receptors
The trypsin is removed by aspiration and the cells dislodged by tapping. Cell Culture medium (e.g. 30 mL for 1:30 split) is immediately added and mixed well to inactivate trypsin. 1 mL of detached cells is added to new culture flasks containing fresh Cell Culture medium (e.g. into 25 mL per T-150 flask), and mixed gently. The cells are incubated at 37° C. in 5% CO2. The medium is changed at 3 to 4 days interval (or as appropriate). […] All steps are done under sterile conditions. B. Membrane Preparation: The cells are washed twice gently with Hank's Balanced Salt solution (e.g., use 10 mL per T-150 flask). […] The contents are transferred to centrifuge tubes (50 mL size) kept in ice bath. All subsequent steps are done at 4° C. The tubes are centrifuged at 300×g for 15 min (1380 rpm on SORVAL, Model RT6000D, using rotor for 50 mL tubes). The supernatant is discarded and the cells suspended in homogenizing buffer (10 mM Tris-HCl containing 0.25 M sucrose and 1 mM EDTA, pH 7.4) ensuring that the volume of the buffer is about ten times the volume of the cell pellet. The cells are pooled into a centrifuge tube (50 mL) and homogenized with a Polytron at setting 6 for 10 sec. The homogenate is transferred into a Potter-Elvjehm homogenizer and homogenized with 3 strokes. The homogenate is centrifuged at 1500×g for 10 min at 4° C. (3100 rpm using SORVAL, model RT6000D, using rotor for 50 mL tubes). The pellet is discarded. The supernatant is centrifuged at 100,000×g for 60 min. at 4° C. (Beckman L8-80M ultracentrifuge; spin at 37,500 rpm with rotor type 70 Ti for 50 mL tubes; 38,000 rpm with type 80Ti for 15 mL tubes; or 35,800 rpm with rotor type 45Ti). The supernantant is discarded and the pellet suspended in 3 to 4 mL of Tris buffer (50 mM TRIS-HCl, pH 7.4). The protein content is estimated by the Bradford or Lowry method. The volume of the membrane suspension is adjusted with the membrane buffer (50 mM Tris-HCl containing 0.1% BSA and 0.1 mM PMSF) to give 3.0 mg/mL (or as appropriate) of protein. The membranes are aliquoted and stored at −70° C. C. Radioligand Binding Assay: In wells of a 96-well format microtiter plate, is added 90, 110 or 130 μL (to make up a final volume of 200 μL) of assay buffer containing 50 mM of Tris-HCl (pH 7.4), […], 1 mg % aprotinin, 1 mg % leupeptin, 2 mg % 1,10-phenanthroline, 10 mg % trypsin inhibitor, and 0.1 mM PMSF. The inhibitors are added on the day of the experiment. The components are mixed at room temperature, and then kept in ice bath following adjustment of the pH to 7.4. […] For oxytocin and other peptide ligands, 20 μL of 50% DMSO is added and the assay buffer volume is adjusted accordingly. To each well is added 50 μL of frozen membrane suspension thawed immediately prior to use and diluted in assay buffer to the required concentration (equivalent to 25 to 50 μg of protein/well as needed). 20 μL of 8 nM [^3H]oxytocin in the assay buffer, prepared just before use is added and incubated at room temperature for 60 min. shaking the plate on a mechanical shaker for the first 15 min. The incubation is stopped by rapid filtration of the plate contents followed by washing with ice-cold buffer (50 mM Tris-HCl, pH 7.4) using a cell harvester (Tomtek and Printed filtermat-B filter paper). The filter paper is thoroughly dried (7–12 min. in a microwave oven) and impregnated with MeltiLex B/H melt-on scintillation wax sheets and the radioactivity counted in a betaplate scintillation counter.
Binding data is either reported as percent inhibition at a certain concentration or if an IC50 was calculated, as a nanomolar concentration.

Row | inhibition at 0.1 µM [%] | SMILES | OT % inhibition @ 100% nM [%]
1 | 96 | COc1cccc(-c2ccc(C(=O)N3Cc4ccc(C(=O)N(C)CCCN(C)C)n4Cc4ccccc43)cc2OC)c1 [Example 108, 10-[(2,3′-Dimethoxy[1,1′-biphenyl]-4-yl)carbonyl]-N-[3-(dimethylamino)propyl]-N-methyl-10,11-dihydro-5H-pyrrolo[2,1-c][1,4]benzodiazepine-3-carboxamide] | 
2 | 36 | COc1cccc(-c2ccc(C(=O)N3Cc4ccc(C(=O)NCCCn5ccnc5)n4Cc4ccccc43)cc2C)c1 [Example 125, N-[3-(1H-Imidazol-1-yl)propyl]-10-[(3′-methoxy-2-methyl[1,1′-biphenyl]-4-yl)carbonyl]-10,11-dihydro-5H-pyrrolo[2,1-c][1,4]benzodiazepine-3-carboxamide] | 
3 |  | Cc1ccccc1-c1ccc(C(=O)N2Cc3ccc(C(=O)N4CC[C@@H](N(C)C)C4)n3Cc3ccccc32)cc1 [Example 280, [(3R)-3-(Dimethylamino)pyrrolidinyl]{10-[(2′-methyl[1,1′-biphenyl]-4-yl)carbonyl]-10,11-dihydro-5H-pyrrolo[2,1-c][1,4]benzodiazepin-3-yl}methanone] | 95
4 |  | COc1cc(C(=O)N2Cc3ccc(C(=O)N4CCC[C@H]4CN4CCCC4)n3Cc3ccccc32)ccc1-c1ccccc1C [Example 266, {10-[(2-Methoxy-2′-methyl[1,1′-biphenyl]-4-yl)carbonyl]-10,11-dihydro-5H-pyrrolo[2,1-c][1,4]benzodiazepin-3-yl}[(2S)-2-(1-pyrrolidinylmethyl)pyrrolidinyl]methanone] | 97
5 | 46 | COc1cccc(-c2cc(OC)c(C(=O)N3Cc4ccc(C(=O)NCCCn5ccnc5)n4Cc4ccccc43)cc2Cl)c1 [Example 130, 10-[(6-Chloro-3,3′-dimethoxy[1,1′-biphenyl]-4-yl)carbonyl]-N-[3-(1H-imidazol-1-yl)propyl]-10,11-dihydro-5H-pyrrolo[2,1-c][1,4]benzodiazepine-3-carboxamide] | 
6 | 47 | COc1ccccc1-c1ccc(C(=O)N2Cc3ccc(C(=O)NCCCn4ccnc4)n3Cc3ccccc32)cc1C [Example 123, N-[3-(1H-Imidazol-1-yl)propyl]-10-[(2′-methoxy-2-methyl[1,1′-biphenyl]-4-yl)carbonyl]-10,11-dihydro-5H-pyrrolo[2,1-c][1,4]benzodiazepine-3-carboxamide] | 
7 | 29 | Cc1ccccc1-c1ccc(C(=O)N2Cc3ccc(C(=O)NCCCn4ccnc4)n3Cc3ccccc32)cc1 [Example 127, N-[3-(1H-Imidazol-1-yl)propyl]-10-[(2′-methyl[1,1′-biphenyl]-4-yl)carbonyl]-10,11-dihydro-5H-pyrrolo[2,1-c][1,4]benzodiazepine-3-carboxamide] | 
8 | 97 | Cc1ccccc1-c1ccc(C(=O)N2Cc3ccc(C(=O)N4CCC(N5CCCCC5)CC4)n3Cc3ccccc32)cc1C [Example 113, {10-[(2-Methyl-2′-methyl[1,1′-biphenyl]-4-yl)carbonyl]-10,11-dihydro-5H-pyrrolo[2,1-c][1,4]benzodiazepin-3-yl}[4-(1-piperidinyl)-1-piperidinyl]methanone] | 
9 | 63 | COc1ccccc1-c1ccc(C(=O)N2Cc3ccc(C(=O)NCCN4CCCCC4)n3Cc3ccccc32)cc1 [Example 152, 10-[(2′-Methoxy[1,1′-biphenyl]-4-yl)carbonyl]-N-[2-(1-piperidinyl)ethyl]-10,11-dihydro-5H-pyrrolo[2,1-c][1,4]benzodiazepine-3-carboxamide] | 
10 |  | COc1ccccc1-c1ccc(C(=O)N2Cc3ccc(C(=O)N4CC[C@@H](N(C)C)C4)n3Cc3ccccc32)cc1 [Example 279, [(3R)-3-(Dimethylamino)pyrrolidinyl]{10-[(2′-methoxy[1,1′-biphenyl]-4-yl)carbonyl]-10,11-dihydro-5H-pyrrolo[2,1-c][1,4]benzodiazepin-3-yl}methanone] | 100
11 |  | COc1cccc(-c2ccc(C(=O)N3Cc4ccc(C(=O)NCCC5CCCN5C)n4Cc4ccccc43)cc2C)c1 (centres unmarked) [Example 164, 10-[(3′-Methoxy-2-methyl[1′1′-biphenyl]-4-yl)carbonyl]-N-[2-(1-methyl-2-pyrrolidinyl)ethyl]-10,11-dihydro-5H-pyrrolo[2,1-c][1,4]benzodiazepine-3-carboxamide] | 54
12 |  | O=C(c1ccc(-c2cccc3ccccc23)cc1Cl)N1Cc2ccc(C(=O)N3CCC[C@H]3CN3CCCC3)n2Cc2ccccc21 [Example 261, {10-[2-Chloro-4-(1-naphthyl)benzoyl]-10,11-dihydro-5H-pyrrolo[2,1-c][1,4]benzodiazepin-3-yl}[(2S)-2-(1-pyrrolidinylmethyl)pyrrolidinyl]methanone] | 52
13 |  | COC(=O)c1ccc2c(c1)N(C(=O)c1ccc(-c3ccccc3C(F)(F)F)c(C)c1)Cc1cccn1C2 [Example 26, Methyl 10-{[2-methyl-2′-trifluoromethyl-[1,1′-biphenyl]-4-yl]carbonyl}-10,11-dihydro-5H-pyrrolo[2,1-c][1.4]benzodiazepine-8-carboxylate] | 17
14 |  | Cc1ccccc1-c1ccc(C(=O)N2Cc3ccc(C(=O)N4CCC[C@H]4CN4CCCC4)n3Cc3ccccc32)cc1C [Example 260, {10-[(2,2′-Dimethyl[1,1′-biphenyl]-4-yl)carbonyl]-10,11-dihydro-5H-pyrrolo[2,1-c][1,4]benzodiazepin-3-yl}[(2S)-2-(1-pyrrolidinylmethyl)pyrrolidinyl]methanone] | 102
15 |  | COc1ccccc1-c1ccc(C(=O)N2Cc3ccc(C(=O)N4CCC[C@H]4CN4CCCC4)n3Cc3ccccc32)cc1 [Example 265, {10-[(2′-Methoxy[1,1′-biphenyl]-4-yl)carbonyl]-10,11-dihydro-5H-pyrrolo[2,1-c][1,4]benzodiazepin-3-yl}[(2S)-2-(1-pyrrolidinylmethyl)pyrrolidinyl]methanone] | 100
16 | 15 | O=C(NCCCn1ccnc1)c1ccc2n1Cc1ccccc1N(C(=O)c1ccc(-c3cccc4ccccc34)cc1Cl)C2 [Example 134, 10-[2-Chloro-4-(1-naphthyl)benzoyl]-N-[3-(1H-imidazol-1-yl)propyl]-10,11-dihydro-5H-pyrrolo[2,1-c][1,4]benzodiazepine-3-carboxamide] | 
17 |  | COc1cc(C(=O)N2Cc3ccc(C(=O)N(C)CCCN(C)C)n3Cc3ccccc32)ccc1-n1c(C)ccc1C [Example 310, N-[3-(Dimethylamino)propyl]-10-[4-(2,5-dimethyl-i H-pyrrol-1-yl)-3-methoxybenzoyl]-N-methyl-10,11-dihydro-5H-pyrrolo[2,1-c][1,4]benzodiazepine-3-carboxamide] | 58
